pIC50: −log10 of the molar value.
Assays:
[1] = target: T1, steroid sulfatase in HaCaT keratinocytes (Homo sapiens, UniProt P08842); test: Steroid sulfatase inhibition in HaCaT cells incubated with DHEAS; format: cell-based; conditions: intact HaCaT keratinocytes, 0.3 μM DHEAS, 96 hours
T1 construct: HaCaT keratinocytes are cultivated in Dulbecco's modification of Eagle's medium (DMEM); endogenous in cells; host or cells: HaCaT keratinocytes
T1 sequence (P08842 22-583): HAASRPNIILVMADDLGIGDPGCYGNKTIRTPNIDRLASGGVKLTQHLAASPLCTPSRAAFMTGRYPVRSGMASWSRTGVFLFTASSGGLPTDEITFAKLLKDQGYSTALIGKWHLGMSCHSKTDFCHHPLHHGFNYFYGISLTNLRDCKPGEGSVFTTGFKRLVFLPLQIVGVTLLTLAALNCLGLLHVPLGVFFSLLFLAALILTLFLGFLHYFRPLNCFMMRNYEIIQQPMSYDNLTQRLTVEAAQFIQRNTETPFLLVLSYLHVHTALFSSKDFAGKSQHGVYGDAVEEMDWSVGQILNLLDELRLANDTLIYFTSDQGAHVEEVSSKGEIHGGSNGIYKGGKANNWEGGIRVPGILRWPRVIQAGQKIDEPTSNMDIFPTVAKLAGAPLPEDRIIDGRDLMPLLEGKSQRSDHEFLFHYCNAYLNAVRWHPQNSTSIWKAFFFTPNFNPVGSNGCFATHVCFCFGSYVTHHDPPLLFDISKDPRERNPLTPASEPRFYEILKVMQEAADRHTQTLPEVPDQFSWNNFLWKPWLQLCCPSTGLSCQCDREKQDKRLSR
Method: Steroid Sulfatase Inhibition in HaCaT Cells Incubated with DHEAS
HaCaT keratinocytes are cultivated in Dulbecco's modification of Eagle's medium (DMEM) supplemented with 10% v/v fetal calf serum (FCS). They are grown to confluency and then harvested by trypsinization. Approximately 2×10^6 cells are dispensed into 9.6 cm^2 dishes and incubated in medium containing FCS until confluency is reached. Then the medium is changed to serum-free DMEM (1.5 ml per well); 0.3 μM DHEAS is included as substrate with 1.5 μCi/well [^3H]-DHEAS (21 Ci/mmol) as tracer. Incubation is continued for 96 hours. […] In parallel, DHEAS is also incubated with medium without cells as a control for non-enzymatic hydrolysis. After incubation, the supernatant is removed and 1 ml is extracted with 4 ml of toluene. 3 ml of the organic layer are collected and the solvent evaporated in vacuo. The residue is taken up in acetonitrile. 10 μg DHEA is included as carrier. The extract is analysed by high performance liquid chromatography (HPLC) using a RP C-8 column and isocratic elution with 10 mM ammonium sulfate pH 6/acetonitrile (60/40), at a flow rate of 1 ml/min. The amount of DHEA cleaved during incubation is calculated from the area of the corresponding radioactive peak determined by continuous monitoring with a radiodetector equipped with a flow-cell.

[2] = target: T2, steroid sulfatase (Homo sapiens, UniProt P08842); test: Steroid sulfatase inhibition in cell extracts (HaCaT keratinocytes or 1BR3GN fibroblasts, [3H]-DHEAS cleavage); format: biochemical; set-up: the supernatant which contains the solubilized enzyme is removed and stored at 4°; endogenous in cells; host or cells: HaCaT keratinocytes or 1BR3GN fibroblasts (microsomal extract); conditions: solubilized enzyme from HaCaT or 1BR3GN cells, 50 μM DHEAS, 30 minutes at 37°; depending on the enzyme concentration used
T2 sequence (P08842 22-583): T1 sequence (P08842 22-583)
Method: Steroid Sulfatase Inhibition in Cell Extracts
Human keratinocytes (HaCaT) or human skin-derived fibroblasts (1BR3GN) are grown to confluency using standard cell culture techniques. Cells are harvested by trypsinization, washed once with phosphate-buffered saline (PBS) and suspended in 20 mM Tris-HCl, pH 8.0. The suspension is sonicated and then centrifuged at 12000 g for 30 minutes. The supernatant is subjected to ultracentrifugation at 100000 g for 60 minutes. The resulting microsomal pellet is resuspended in buffer containing 0.1% Triton X-100 v/v and left standing for 30 minutes. After additional centrifugation at 100000 g for 30 minutes the supernatant which contains the solubilized enzyme is removed and stored at 4°.
For assay of the enzymatic activity 10 μl of enzyme solution are added to 100 μl of 50 μM dehydroepiandrosterone sulfate (DHEAS) containing approximately 60000 dpm [^3H]-DHEAS (21 Ci/mmol) in 0.1 M Tris-HCl, pH 7.5; 0.1% v/v Triton X-100. Test compound is included at various concentrations added from stock solutions in DMSO. After incubation for 30 minutes at 37°, 250 μl of 1N NaOH are added. The mixture is extracted with 1 ml of toluene. 800 μl of the organic layer are subjected to liquid scintillation counting to determine the fraction of substrate that has been cleaved to dehydroepiandrosterone (DHEA).

[3] = target: T2, steroid sulfatase; test: Steroid sulfatase inhibition in vitro (purified enzyme, 4-methylumbelliferyl sulfate cleavage, fluorescence); conditions: purified human placental steroid sulfatase, 0.5 mM 4-methylumbelliferyl sulfate, 37°, 1 hour; reference determined in parallel
Method: Steroid Sulfatase Inhibition in vitro
a) Purification of Human Steroid Sulfatase
Human placenta is obtained fresh after delivery and stripped of membranes and connective tissues. For storage the material is frozen at −70°. After thawing, all further steps are carried out at 4°, while pH values are adjusted at 20°. 400 g of tissue are homogenized in 1.2 l of buffer A (50 mM Tris-HCl, pH 7.4; 0.25M sucrose). The homogenate is centrifuged at 10,000 g for 45 minutes. The supernatant is set aside and the pellet re-homogenized in 500 ml of buffer A. After centrifugation the two supernatants are combined and subjected to ultracentrifugation (100,000 g, 1 hour). The pellet is resuspended in buffer A and the centrifugation repeated. The pellet is suspended in 50 ml of 50 mM Tris-HCl, pH 7.4 and stored at −20° until further work-up.
After thawing, microsomes are collected by ultracentrifugation as described above and suspended in 50 ml of buffer B (10 mM Tris-HCl, pH 7.0; 1 mM EDTA; 2 mM 2-mercaptoethanol; 1% Triton X-100 v/v; 0.1% aprotinin v/v). After 1 hour on ice with gentle agitation the suspension is centrifuged (100,000 g, 1 hour). […]
Purified human steroid sulfatase also readily cleaves aryl sulfates such as 4-methylumbelliferyl sulfate. […]
Plates are incubated at 37° for 1 hour. […] Fluorescence intensity is measured (Titertek Fluoroskan II) with λex=355 nm and λem=460 nm. […]

melting point [°C]	Compound	pIC50 [1]	pIC50 [2]	pIC50 [3]
–	C[C@]12CC[C@@H]3c4ccc(OS(N)(=O)=O)cc4CC[C@H]3[C@@H]1CCC2=O [Estrone-3-O-sulfamate]	~10.00	8.30 to 9.00	~7.22
83 to 85	CN(C)S(=O)(=O)Oc1ccc2oc(C(C)(C)C)cc(=O)c2c1 [Example 9, N,N-Dimethylsulfamic acid 2-t-butyl-4H-chromen-4-on-6-yl ester]	–	–	–

Source: US6346626B1, “Chromanone and thiochromanone compounds” (Novartis AG, priority 1998, dated 2002)
